One experiment has as its target T1, human Y5 receptor (Homo sapiens, UniProt Q15761).
T1 construct: expressed in transfected cells; host or cells: HEK 293
T1 sequence (Q15761 1-445): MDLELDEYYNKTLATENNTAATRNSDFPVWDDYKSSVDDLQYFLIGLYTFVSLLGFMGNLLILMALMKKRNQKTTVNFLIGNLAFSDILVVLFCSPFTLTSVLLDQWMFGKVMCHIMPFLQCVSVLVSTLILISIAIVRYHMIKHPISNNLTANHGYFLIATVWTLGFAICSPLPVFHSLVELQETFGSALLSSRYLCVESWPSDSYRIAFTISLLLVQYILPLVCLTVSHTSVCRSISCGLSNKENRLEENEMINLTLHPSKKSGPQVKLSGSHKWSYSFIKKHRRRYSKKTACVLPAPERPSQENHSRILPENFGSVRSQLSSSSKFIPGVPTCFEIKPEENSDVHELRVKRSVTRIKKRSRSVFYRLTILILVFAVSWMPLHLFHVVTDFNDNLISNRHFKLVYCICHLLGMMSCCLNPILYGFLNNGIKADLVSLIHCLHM
The experiment can be described thus: Receptor binding, HEK 293 cells stably transfected with human Y5 receptor. The settings on record: read-out: Affinity IC50, humanY5/293. Here is the method: HEK 293 cells stably transfected with human Y5 receptor:
Centrifugated cells were cultivated as described for BHK/Y1 cells except that a concentration of 0.7 mg/ml G-418 was used, no hygromycin added and no IPTG induction was necessary. The incubation buffer, cell cultivation and receptor binding was performed as described. Final concentration was 1.5×10^6 cells/ml and centrifugation stopped as described for Y1/BHK cells.

A short description of experiment [1]: Food intake in food-deprived rats. It is filed as in vivo, rat. As to conditions: 15 μg, bilaterally, PVN. On the procedure:
Food-deprivation experiments were conducted with male Chbb:Thom rats weighing between 300 and 350 g. The animals were individually housed for the duration of the study and allowed free access to normal food together with tap water. Food was removed from the animals for 24 hours starting at 8:00 a.m. At the end of the fasting period compound or vehicle was administered to the animals by infusion into the PVN. Food was returned to the animals and their food intake monitored at various time periods during the following 24 hour period. The food intake of animals treated with test compound was calculated as a percentage of the food intake of control animals (i.e., animals treated with vehicle).

A further experiment has as its target T2, humanY2 (Homo sapiens, UniProt P49146).
T2 construct: endoge- nously expressing Y1 and Y2 receptors; endogenous in cells; host or cells: SMS-KAN (neuroblastoma) cells
T2 sequence (P49146 1-381): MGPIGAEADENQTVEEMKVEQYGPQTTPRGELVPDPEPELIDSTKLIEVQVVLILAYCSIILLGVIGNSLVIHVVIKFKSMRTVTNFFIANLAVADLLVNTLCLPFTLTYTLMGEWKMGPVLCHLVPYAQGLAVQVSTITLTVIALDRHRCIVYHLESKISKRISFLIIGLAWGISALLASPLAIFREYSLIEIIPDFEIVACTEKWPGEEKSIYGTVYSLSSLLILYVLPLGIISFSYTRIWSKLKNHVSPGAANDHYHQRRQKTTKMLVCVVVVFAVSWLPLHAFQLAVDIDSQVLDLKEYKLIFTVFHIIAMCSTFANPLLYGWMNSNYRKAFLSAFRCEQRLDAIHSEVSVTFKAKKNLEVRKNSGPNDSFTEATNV
The experiment can be described thus: Receptor binding, SMS-KAN cells (Y2). The settings on record: read-out: Affinity IC50, humanY2/SMS-KAN. On the procedure:
SMS-KAN (neuroblastoma) cells: Cells were grown and receptor binding assay performed analogously as described hereinbefore under A and by Wieland et al. in Peptides 16, 1389-1394 (1995).

Each structure is given as a SMILES string.

Consider `N=C(N)NCCC[C@@H](NC(=O)C(c1ccccc1)c1ccccc1)C(=O)NCc1ccc(CNC(N)=O)cc1` [Compound C], for which the IC50 on human Y5 receptor and on humanY2 was above 10 µM throughout. In addition, in experiment [1], the “food intake in 24 hour food deprived rats (result in words)” value was “significant reduction in food intake”.

The values above are taken from patent US6114390A, “Amino acid derivatives, pharmaceutical compositions containing these compounds and processes for preparing them” (Karl Thomae GmbH, priority 1997, dated 2000).
